Experimental data reported in ChEMBL document CHEMBL3507680, “University of Dundee, Gates Library screen for HepG2 cell viability”.

Assay: Human HepG2 cell viability assay in 384 well format
Format: toxicity, cell-based
Set-up: dose 125 nL, time 70.5 hour; concentration not given beside the values
Conditions: HepG2 cells, read-out: Inhibition

Compound | cytotoxicity at 70.5 h
O=S(=O)(CCN1CCN(c2ccccc2O)CC1)c1ccc(Cl)cc1 | -14.3%
Cc1ccc(OCc2cccc(C(=O)N(C)C(C)CC#N)c2)cn1 (stereo not drawn) | 0.55%
CN1N=C(c2nc(Cc3cccc(Br)c3)no2)CCC1=O | -2.2%
Cc1[nH]ncc1CCCNC(=O)N1CCN2CCCCC2C1 (stereo not drawn) | 8.45%
CCc1oc(C(=O)N2CCCC(c3nnn[nH]3)C2)cc1C (stereo not drawn) | -4.85%
COc1ccc(Cc2noc(C3=NN(C)C(=O)CC3)n2)cc1OC | -2.26%
COCCN(Cc1noc(-c2ccc(OC)cc2)n1)C1CC1 | -0.841%
CCN(CC(C)C#N)C(=O)c1cccc(COc2ccc(C)nc2)c1 (stereo not drawn) | -4.47%
N#CCCN(CC1CCOC1)Cn1ccc(-c2ccsc2)n1 (stereo not drawn) | 0.369%
CC(C(=O)N1CCCC1)S(=O)(=O)Cc1noc(C(C)(C)C)n1 (stereo not drawn) | -2.28%
CC(O)CN1CCC(CN(C)Cc2cc(F)cc3cccnc23)CC1 (stereo not drawn) | -2.25%
O=C(c1cnc(-c2ccccc2)s1)N1CCC2(CC1)OCCO2 | 7.39%
Cc1cc(C)n(CC(C)CNC(=O)NCc2ccco2)n1 (stereo not drawn) | -10.4%
CCN(CC)S(=O)(=O)c1cc(NC(=O)CCc2cscn2)ccc1C | -6.12%
CC(C)CC(NC(=O)CN(C)C(=O)c1ccco1)c1cccs1 (stereo not drawn) | -9.94%
CC(C)CC(NC(=O)CN(C)c1cnccn1)c1cccs1 (stereo not drawn) | -6.01%
CCC(=O)NC(CC(C)C)c1cccs1 (stereo not drawn) | -14%
Oc1cccc(CNCCC2CCCO2)c1 (stereo not drawn) | -12.5%
CC(C)N(C)C(=O)C1CSCN1S(=O)(=O)c1ccccc1F (stereo not drawn) | -9.21%
Cn1ccc(C(=O)Nc2cccc(-c3ccc4c(c3)CCO4)n2)cc1=O | -20.6%
O=C1C=CC=N/C1=C(/O)NCCNS(=O)(=O)N1CCCCCC1 | -9.06%
O=C(COC1CCCC1)N1CCC(C(O)c2ccc(F)cc2)CC1 (stereo not drawn) | -8.09%
Cc1ccc(C(=O)NCCS(=O)(=O)N2CCSCC2)o1 | 3.19%
Cc1ccccc1C1(CNCc2cnc(N3CCOCC3)nc2)CC1 | 5.8%

Compound | cytotoxicity at 70.5 h
Cc1ncccc1C(=O)NCC(C)Oc1ccc(F)cc1 (stereo not drawn) | 24.4%
CCc1ccc(C(COC)NC(=O)c2ccsc2)o1 (stereo not drawn) | -3.72%
Cn1c(C2CC2)nc2c1CCN(Cc1nc3ccccc3s1)C2 | 23.2%
O=C1N(CC2CC2)C(c2cncs2)NC12CCCC2 (stereo not drawn) | -4.01%
COc1ccccc1N1CCN(CC(=O)NC(C)c2ccco2)CC1 (stereo not drawn) | -5.63%
O=C1CCCN1Cc1ccc(C(=O)N2CCCC2c2cccs2)cc1 (stereo not drawn) | -6.75%
CC(NC(=O)CN1CCN(c2ccncc2Cl)CC1)c1ccco1 (stereo not drawn) | -7.35%
CCc1ccc(C(COC)NC(=O)c2ccc(F)c(NC(C)=O)c2)o1 (stereo not drawn) | 23.6%
CCN(Cc1ccco1)C(C)c1nc(C)no1 (stereo not drawn) | -2.63%
CCN(Cc1ccco1)C(C)c1nc(C(C)C)no1 (stereo not drawn) | -3.54%
COc1ccnc(NC(Cc2ccccc2)C(N)=O)n1 (stereo not drawn) | -3.74%
CCOc1ccc(CNC(C)c2c(C)nn(C)c2C)cc1 (stereo not drawn) | 20.4%
Cc1nc(CN2CCCN(CCCc3ccccc3)CC2)no1 | -7.12%
CC(c1ccc(S(C)(=O)=O)cc1)N(C)C(=O)c1ccccc1I (stereo not drawn) | -4.13%
CCOc1ccccc1C(=O)N(C)C(C)c1ccc(S(C)(=O)=O)cc1 (stereo not drawn) | -6.38%
Cc1ccc(N(CC(=O)N2CCCCC2)C(=O)C2COCCO2)cc1 (stereo not drawn) | -2.98%
CC1CCCN(CCCNC(=O)Cc2csc(-c3ccoc3)n2)C1 (stereo not drawn) | -3.83%
Cc1nc(CN2CCN(CCCc3nc4ccccc4o3)CC2)no1 | -0.419%
Cc1nn(C)c(C)c1C(C)NCc1ccc(OC(C)C)cc1 (stereo not drawn) | -1.94%
Cc1nc(CN2CCN(CCCc3ccccc3)CC2)no1 | 1.83%
Cc1cccc(N(CC(=O)N2CCCCC2)C(=O)C2CCCO2)c1 (stereo not drawn) | 2.3%
CSCc1cc(F)ccc1CNC(=O)N1CCCC1 | -4.58%
O=C(c1csc(-c2ccco2)n1)N1CCOc2ncccc21 | 0.101%
COc1cccc(-c2cnc(CNC(C)(C)c3nc(C)cs3)o2)c1 | -4.32%

Compound | cytotoxicity at 70.5 h
Cc1noc(C(C)N(C)Cc2ccco2)n1 (stereo not drawn) | -6.09%
CCCc1noc(C(C)N(CC)Cc2ccco2)n1 (stereo not drawn) | 7.58%
CCN(Cc1ccco1)C(C)c1nc(C(C)(C)C)no1 (stereo not drawn) | -3.44%
Cc1cscc1-c1nc(C2CCOC2)no1 (stereo not drawn) | -5.31%
COCCSCC(=O)NCc1ccc(N(C)C)nc1 | -4.15%
CSCc1cc(F)ccc1CNC(=O)N1CCC[C@@H]1CO | -4.06%
CSCc1cc(F)ccc1CNC(=O)N1CCOCC1 | -10.7%
CSCc1cc(F)ccc1CNC(=O)N1CCCC(CO)C1 (stereo not drawn) | -7.73%
CCc1nc(C)c(C(C)N(C)CCc2ccccn2)s1 (stereo not drawn) | 9.61%
COc1ccc(CN(C(=O)C(C)SC)c2cnn(C)c2)c(OC)c1 (stereo not drawn) | 1.09%
COc1ccc(S(=O)(=O)C(F)(F)F)cc1NC(=O)CSCC#N | 1.04%
O=C(C1CCCO1)N1CCC(c2nc(-c3ccccc3)n[nH]2)CC1 (stereo not drawn) | 1.35%
Cc1ccccc1CC(C)(C)NC(=O)COc1cccc(C(N)=O)c1 | -0.108%
CCOc1ccccc1C(=O)N1CCn2c(nnc2C(F)(F)F)C1 | -1.86%
COc1ccc(CN(C(=O)C(C)C)c2cnn(C)c2)c(OC)c1 | -1.23%
Cc1nccn1-c1ccc(C(C)NCc2ncc[nH]2)cc1 (stereo not drawn) | 12.6%
FCCOc1cccc(NCc2c[nH]nc2-c2cccnc2)c1 | -3.33%
CCN(CC)S(=O)(=O)c1ccc(OC)c(NC(=O)CSC)c1 | 12.2%
CC1CCCN(CCCNC(=O)c2cn(C)nc2-c2cccnc2)C1 (stereo not drawn) | -2.34%
COCC(=O)NS(=O)(=O)c1ccc(F)c(F)c1 | -2.65%
CCCN1CCCC1c1nc(Cc2ccc(F)cc2)no1 (stereo not drawn) | 15.1%
COc1cc(C)sc1C(=O)NCCC(=O)N(C)Cc1ccccc1 | -3.28%
CC(=O)N1CCCN(S(=O)(=O)c2cc3ccccc3o2)CC1 | 0.284%
Cn1cc(C(=O)NCCCN2CCCCCC2=O)c(-c2cccnc2)n1 | 11%

Compound | cytotoxicity at 70.5 h
COc1cc(C)sc1C(=O)NCCC(=O)N(C)c1ccccc1 | -2.86%
Cc1noc(C)c1CNC(C)c1ccc(S(=O)(=O)N(C)C)cc1 (stereo not drawn) | -2.42%
CCCNC(=O)CN1CCCC1c1nc(Cc2ccc(F)cc2)no1 (stereo not drawn) | -4.46%
O=C(NCCc1cccnc1)NC1CCOC2(CCCCC2)C1 (stereo not drawn) | 17.8%
Cc1cc(C(=O)Nc2ccc(CN3CCOCC3)cn2)n(C)n1 | -5.67%
Cc1nc(CNCC2CCCN(C(=O)OC(C)(C)C)C2)cs1 (stereo not drawn) | 27.5%
COc1ccc(OCCNC(=O)c2ccc3c(=O)[nH][nH]c(=O)c3c2)cc1 | -0.259%
O=C(NC1CCS(=O)(=O)c2ccccc21)c1cccs1 (stereo not drawn) | -7.77%
CC(C)(CNC(=O)C1CCCN1S(C)(=O)=O)N1CCOCC1 (stereo not drawn) | -11%
CCC(=O)Nc1ncn(Cc2cccnc2)n1 | 15.8%
CCOCCCC(=O)NCc1ccc(N2CCCCC2)cc1 | -11.1%
CC(C)CCn1ccc(NC(=O)N2CCCC2CN2CCOCC2)n1 (stereo not drawn) | -7.64%
O=C(COc1ccc(-c2ccccc2)nc1)NCC1CC1 | -5.26%
CNC(=O)COc1ccc(-c2ccccc2)nc1 | -7.98%
CC(C)c1nnc2n1CCN(c1nn3cc(C(C)(C)C)nc3s1)C2 | -8.04%
Cc1ccc(C2CN(c3nnc(C(F)F)s3)CCO2)c(C)c1 (stereo not drawn) | -4.44%
CN(C)C(=O)Cn1cc(C(=O)NCCc2ccc(Cl)cc2Cl)nn1 | -0.867%
Cc1c(C(=O)NCCC(=O)N2CCOCC2)sc2ccc(F)cc12 | 1.17%
N#Cc1cccc(OCCN2CCCC2C(=O)NCC(F)(F)F)c1 (stereo not drawn) | -0.526%
Cc1nc(C(=O)N(C)C)nn1-c1ccccc1C(C)C | 0.366%
CC(C)c1nc(CN2CCN(C(=O)CC3CCCCC3)CC2)no1 | 7.95%
Cc1ccc(C)c(CC(=O)NC2(C#N)CCOCC2)c1 | 1.6%
C1=C(c2c[nH]c3ncccc23)CCN(Cc2nnc(C3CC3)o2)C1 | 12.3%
CC(C)CNC(=O)CNC(=O)NC(c1nccs1)C1CC1 (stereo not drawn) | 4.02%

Compound | cytotoxicity at 70.5 h
CC(C)(C)C(=O)NCc1nccn1CCc1ccccc1 | -5.7%
CC(C)(O)CNC(=O)NCc1nccn1CCc1ccccc1 | -1.1%
Cc1noc(CN2CC=C(c3c[nH]c4ncccc34)CC2)n1 | 20.4%
CN(C(=O)NCc1nccn1CCc1ccccc1)C1CCC1 | 1.68%
O=C(NCc1nccn1CCc1ccccc1)NCC1(O)CCC1 | 1.18%
Cc1noc(CN(CCc2ccco2)Cc2cccc(C#N)c2)n1 | 2.9%
Cc1noc(CN(CCc2cccs2)Cc2cccc(C#N)c2)n1 | 0.848%
Cc1nc(C(=O)N(C)CC2CCCO2)nn1-c1ccccc1C(C)C (stereo not drawn) | -5.46%
CC(C)(C)OC(=O)N1CCC(C(=O)NCc2ccccc2)C1 (stereo not drawn) | 7.59%
CCN(CC1CCOC1)C(=O)c1ccc(N(C)C)cc1F (stereo not drawn) | -1.53%
N#Cc1cccc(OCCN2CCCC2C(=O)Nc2nccs2)c1 (stereo not drawn) | 29%
c1ccc(-c2nc(CNC3CCCN(c4cccnn4)C3)no2)cc1 (stereo not drawn) | 18.6%
NC(=O)c1ccc(N2CCCCC2)c(NC(=O)c2ccc(F)cc2F)c1 | 3.5%
O=C(NC1CC1)C1CCN(Cn2nc(-c3ccccc3)oc2=O)CC1 | 25.1%
NC(=O)c1ccc(N2CCCCC2)c(NC(=O)c2cc(Br)ccc2Cl)c1 | 16.1%
CCCNC(=O)Cc1c(C)nc2c(c1C)c(=O)[nH]n2C | 1.36%
NC(=O)C1CCN(Cn2nc(-c3ccc(F)cc3)oc2=O)C1 (stereo not drawn) | -7.79%
CC(NC(=O)NCc1cscn1)c1ccc(N2CCOCC2)cc1 (stereo not drawn) | -0.548%
CCc1nc(CN2CCCN(c3ncnc4ccsc34)CC2)no1 | 8.93%
CCc1nc(CN2CCCN(c3cnc4ccccc4n3)CC2)no1 | -2.11%
CC(C)(C)c1nc(CNC2CCCN(c3cccnn3)C2)no1 (stereo not drawn) | -0.0267%
Clc1ccc(C2(CNC3=NCCN3)CCCCC2)cc1 | 26.8%
